From patent US20100126386A1, “RADIATION-CURABLE COATING SUBSTANCES” (Basf Aktiengesellschaft, priority 2004, published 2010)

assay: Testing of the NIR sensitizers in photoinitiator mixtures (exposure of thin coats with halogen lamp); settings: 0.5% by weight NIR sensitizer and 1.5% by weight boronate salt X in the paint base materials
Protocol: The two aforementioned paint base materials were admixed with 0.5% by weight of each NIR sensitizer and 1.5% by weight of the boronate salt X^− and the mixtures were stirred intensively. Thin coats (coat thickness approximately 50 μm) were produced with the resulting mixtures between two glass plates, using spacer sheets. These coats were exposed using a 250 W halogen lamp (distance approximately 15 cm) for 1 minute.

SMILES	dissolution of the NIR sensitizer in the paint base material
CN1\C(=C/C=C/C=C/C=C/C2=[N+](C)c3ccc(Cl)cc3C2(C)C)C(C)(C)c2cc(Cl)ccc21 [Compound A7]	fully dissolved
CCN1/C(=C/C=C2\CCCC(/C=C/C3=[N+](CC)c4ccc(C(F)(F)F)cc4C3(C)C)=C2Cl)C(C)(C)c2cc(C(F)(F)F)ccc21 [Compound A11]	fully dissolved
CCN1/C(=C/C=C2\CCCC(/C=C/C3=[N+](CC)c4ccc(C#N)cc4C3(C)C)=C2Cl)C(C)(C)c2cc(C#N)ccc21 [Compound A12]	fully dissolved
CN1\C(=C/C=C/C=C/C=C/C2=[N+](C)c3ccc(Cl)cc3C2(C)C)C(C)(C)c2cc(Cl)ccc21 [Compound B7]	not completely dissolved
CCN1/C(=C/C=C2\CCCC(/C=C/C3=[N+](CC)c4ccc(C(F)(F)F)cc4C3(C)C)=C2Cl)C(C)(C)c2cc(C(F)(F)F)ccc21 [Compound B11]	not completely dissolved
CCN1/C(=C/C=C2\CCCC(/C=C/C3=[N+](CC)c4ccc(C#N)cc4C3(C)C)=C2Cl)C(C)(C)c2cc(C#N)ccc21 [Compound B12]	not completely dissolved
